From patent US11891386B2, “Indole compounds and their use” (ARIAGEN, INC., priority 2017, dated 2024)

Assays:
[1] = Separate PK study in mice; format: in vivo; settings: data not shown
[2] = In vivo pharmacokinetic study in Sprague-Dawley rats; settings: rat; for bioavailability: Sprague-Dawley, plasma, po, 10 mg/kg, PO (10 mg/kg) vs IV (2 mg/kg), read-out: F % (bioavailability); for % of Hepatisc Blood Flow: IV (2 mg/kg)
Experimental: This example describes pharmacokinetic (PK) studies of the various indole compounds described herein in rats, a rodent species widely used for pre-clinical toxicology evaluation. In the present studies, the test compounds were given to groups of Sprague-Dawley rats (N=3 in each group) intravenously (IV) at 2 mg/kg or orally (PO) at 10 mg/kg. IV doses were formulated in DMSO, while PO doses were formulated in a 50/50 mixture of PEG400 and Tween 80. Blood samples were collected at pre-dose and over a period of 24 hours post-dose. Plasma concentrations of the indole compounds were determined by HPLC.

[3] = system: CYP1A1 in human HepG2 cells; assay: EROD assay (7-ethoxy-resorufin-O-deethylase), human HepG2 cells; format: cell-based; parameters: key to activity group based on EC50 values, in the order of increasing activity: (1) active; (2) more active; (3) most active; settings: for activity group based on EC50 values, in the order of increasing activity: human EROD assay, oxadiazole derivatives of ITE; for activity in the human EROD assay compared to ARI-001 / ARI-002, in words: human HepG2 cells
Experimental: CYP1A1 induction is under the control of the AhR signaling pathway. This Example describes an in vitro assay (7-ethoxy-resorufin-O-deethylase (EROD) assay) that evaluated the AhR modulating activities of the indole compounds described herein. In this assay, the indole compounds were incubated with human HepG2 cells or mouse Hepal-6 cells. The activity of CYP1A1 in the cells was measured by the conversion of substrate 7-ethoxyresorufin, with the readout being a fluorescence signal associated with the conversion product. The EC50 values of the indole compounds as well as the maximum […] induced by them in the assay were determined.
Human HepG2 cells were obtained from Sigma Aldrich (Catalog 85011430-1VL). Mouse Hepal-6 cells also were obtained from Sigma Aldrich (Catalog 92110305-1V).
Human HepG2 and Mouse Hepal-6 cells were grown to 60-80% confluency in tissue culture flasks, lifted with non-enzymatic cell dissociation solution (cell stripper), seeded in a 384-well plate at 5,000 cells per well, treated with the test compounds, and incubated for 20 hours overnight at 37° C. The treatment medium was removed and a solution of substrate 7-ethoxyresorufin (ETX) was added to initiate the reaction. The plate was incubated at 37° C. for 30 minutes. The reaction was subsequently terminated by adding tempered methanol. Fluorescent emission was measured at 590 nm with excitation at 530 nm in a FLEXSTATION III instrument (Molecular Devices).

[4] = system: EMT-6 syngeneic mouse tumor model (breast cancer); assay: Anti-tumor activity, EMT-6 syngeneic mouse tumor model; format: in vivo; settings: Mus musculus, EMT6, ip, 648 h, Study 3, EMT-6, 40 mpk i.p. QD, D27; read-out: TGI (tumor growth inhibition)
Experimental: (§1) This example describes in vivo studies that evaluated the anti-cancer efficacy of the disclosed indole compounds in syngeneic mouse tumor models. Mice implanted subcutaneously with four types of cancer cells were treated with test indole compounds or vehicle controls as described below.
(§2) A monolayer culture of tumor cells was maintained in vitro in DMEM or RPMI1640 medium supplemented with 10% fetal bovine serum at 37° C. in an atmosphere of 5% CO2. Cells in exponential growth phase were harvested and quantitated by cell counter before tumor inoculation. The cell lines used are described in the table below.
(§3) Four subcutaneous syngeneic mouse tumor models were generated by innoculating female BALB/C or C57BL/6 mice with cancer cells at their right lower or front flank as detailed in the table below:
(§4) Each mouse was inoculated subcutaneously with tumor cells in 0.1 mL of PBS. Treatments were started when the mean tumor size reached approximately 80-120 mm^3 (around 100 mm^3). The administration of the indole compounds and the animal number in each study group are shown in the study design. The date of tumor cell inoculation was denoted as day 0.
(§5) The indole compounds were dissolved in DMSO at the final concentration of 26.7 mg/ml and stored at room temperature.
(§6) Randomization of animals was started when the mean tumor size reached approximately 90 mm^3 to form the mouse study groups. The randomization was performed based on “Matched distribution” method using the multi-task method (StudyDirector™ software, version 3.1.399.19)/randomized block design. The mouse groups (ten in each group) were treated with vehicle (DMSO) or the indole compounds at a dose of 40 mg/kg by i.p. injection, QD for 28 days or longer.
(§7) After tumor cell inoculation, the mice were checked daily for morbidity and mortality. During routine monitoring, the mice were checked for tumor growth and any effects of the treatment on behavior such as mobility, food and water consumption, body weight gain/loss (body weights were measured twice per week after randomization), eye/hair matting, and any other abnormalities. Mortality and observed clinical signs were recorded for individual mice in detail.
(§8) Tumor volumes were measured twice per week in two dimensions using a caliper, and the volume was expressed in mm^3 using the formula: V=(L×W×W)/2, where V is tumor volume, L is tumor length (the longest tumor dimension) and W is tumor width (the longest tumor dimension perpendicular to L). Dosing as well as tumor and body weight measurements was conducted in a Laminar Flow Cabinet. The body weights and tumor volumes were measured by using StudyDirector™ software (version 3.1.399.19). Dosing Holiday
Tumor growth inhibition percentage (TGI %) is an indicator for antitumor activity of a drug compound, and expressed as: TGI (%)=100×(1−T/C), where T and C are the mean tumor volume (or weight) of the treated and control groups, respectively, on a given day. Statistical analysis of the difference in mean tumor volume (MTV) among the groups was conducted using the data collected on the day when the MTV of the vehicle group reached the humane endpoints, so that TGI could be derived for all or most mice enrolled in the study.
In Studies 1 and 3, the anti-tumor activity of ARI-001 in parallel with ARI-002 at 160 mg/kg (mpk), and the anti-tumor activity of ARI-087 in parallel with ARI-002 at 40 mpk were assessed using the EMT-6, Pan02, A20, and LL/2 models. Because EMT-6 provides a fast-growing model that enables relatively quick differentiation of performance between compounds, this syngeneic mouse tumor model was chosen for the other studies. In Study 2, the anti-tumor activity of ARI-002 was compared with that of ARI-004 at 10, 40, and 80 mpk. In Study 4, the anti-tumor activity of ARI-087 was compared with that of ARI-140. In Study 5, the anti-tumor activity of ARI-087 was evaluated in parallel with ARI-143 and ARI-149 at 40 mpk. […]

[5] = system: Pan02 syngeneic mouse tumor model (pancreatic cancer); assay: Anti-tumor activity, Pan02 syngeneic mouse tumor model; format: in vivo; settings: Study 3, Pan02, 40 mpk i.p. QD, D60
Experimental: as §1, §2, §3, §4, §5
Randomization of animals was started when the mean tumor size reached approximately 90 mm^3 to form the mouse study groups. […]
as §7
as §8, with “Dosing as well as tumor and body weight measurements was conducted in a Laminar Flow Cabinet.” left out, “Dosing Holiday” left out
(§9) Tumor growth inhibition percentage (TGI %) is an indicator for antitumor activity of a drug compound, and expressed as: TGI (%)=100×(1−T/C), where T and C are the mean tumor volume (or weight) of the treated and control groups, respectively, on a given day. […]
In Studies 1 and 3, the anti-tumor activity of ARI-001 in parallel with ARI-002 at 160 mg/kg (mpk), and the anti-tumor activity of ARI-087 in parallel with ARI-002 at 40 mpk were assessed using the EMT-6, Pan02, A20, and LL/2 models. […]

[6] = system: LL/2 syngeneic mouse tumor model (lung cancer); assay: Anti-tumor activity, LL/2 syngeneic mouse tumor model; format: in vivo; settings: Study 3, LL/2, 40 mpk i.p. QD, D28
Experimental: as §1, §2, §3, §4, §5, §6, §7, §8, §9
(§10) In Studies 1 and 3, the anti-tumor activity of ARI-001 in parallel with ARI-002 at 160 mg/kg (mpk), and the anti-tumor activity of ARI-087 in parallel with ARI-002 at 40 mpk were assessed using the EMT-6, Pan02, A20, and LL/2 models. […] In Study 5, the anti-tumor activity of ARI-087 was evaluated in parallel with ARI-143 and ARI-149 at 40 mpk. […]

[7] = system: A20 syngeneic mouse tumor model (B cell lymphoma); assay: Anti-tumor activity, A20 syngeneic mouse tumor model; format: in vivo; settings: Study 3, A20, 40 mpk i.p. QD, D28
Experimental: as §1, §2, §3, §4, §5, §6, §7, §8, §9, §10

| Structure (SMILES) | PK improvement over ARI-001 and ARI-002, in words [1] | bioavailability [2] | IV PK profile compared to ARI-001, ARI-002, and ARI-004, in words [2] | % of Hepatisc Blood Flow [2] | activity group based on EC50 values, in the order of increasing activity [3] | activity in the human EROD assay compared to ARI-001 / ARI-002, in words [3] | inhibition in vivo at 40 mg/kg [4] | TGI (tumor growth inhibition) [5] | TGI (tumor growth inhibition) [6] | TGI (tumor growth inhibition) [7] |
| --- | --- | --- | --- | --- | --- | --- | --- | --- | --- | --- |
| Cc1nc(-c2csc(C(=O)c3c[nH]c4ccccc34)n2)no1 [ARI-030, (1H-indol-3-yl)(4-(5-methyl-1,2,4-oxadiazol-3-yl)thiazol-2-yl)methanone] | confirms the improvement | 0.9% | improved IV PK profiles | 28% | active | significantly more (about 4 to 900 times more) active than ARI-001 | 21.9% | 23.5% D60 | 8.4% D28 | −0.8% D28 |
| Cc1noc(-c2csc(C(=O)c3c[nH]c4ccccc34)n2)n1 [ARI-031, (1H-indol-3-yl)(4-(3-methyl-1,2,4-oxadiazol-5-yl)thiazol-2-yl)methanone] | confirms the improvement | 6.3% | improved IV PK profiles | 103% | active | significantly more (about 4 to 900 times more) active than ARI-001 |  |  |  |  |
